Reference: patent US11279682B2 (H. Lundbeck A/S, priority 2015, dated 2022)
Where two headings read alike, the source gives them in different places.

How the values were obtained:
[1] = Intrinsic dissolution rate, spinning-disc method; type: physicochemical; conditions: for IDR (mean of 2 determinations (mg/cm2/min)): 50 mM Tris at pH 6.8, 37° C./200 RPM, as free base
Experimental: The intrinsic dissolution rate (IDR) is expressed as mg vortioxetine dissolved per cm^2 surface per min. The intrinsic dissolution rate is measured using the “spinning-disc method” (μDISS Profiler Instrument from Pion Instruments).
In order to define the surface from which the test compound dissolves, miniaturized disks of compacted pure test compound are made (10 mg). The disk holding the test compound is inserted into a Teflon cup containing an imbedded magnet. The cup is inserted into a vial containing 20 ml dissolution medium (37° C./200 RPM). The dissolved test compound is measured by a fibre optic detection system (200-400 nm). The concentration is determined by comparison with a standard solution and the calculated amount of test compound released (as free base) per surface area is plotted versus time. The slope gives the intrinsic dissolution rate. The measurements are performed in duplicate. The dissolution medium was 50 mM Tris at pH 6.8. Vortioxetine HBr β-form is defined in WO 2007/144005 (see e.g. example 4c and 4d).

[2] = Gelling experiments (vortioxetine pyroglutamate, a salt and water in a vial, left upside down); type: physicochemical
Text: In one embodiment, the invention relates to a gel comprising vortioxetine pyroglutamate, a salt and water. […] A gel of the present invention is particularly useful for oral administration because it is easily swallowed compared to other oral administration forms, in particular tablets and capsules. A gel of the present invention may comprise other ingredients known in pharmaceutical science, in particular taste modifiers, as discussed above. In the present context and in line with the USP definition of a gel, a gel is intended to indicate a semisolid system consisting of either small […] or large organic molecules interpenetrated by a liquid. A gel thus presents as a coherent, viscous, plastic or non-disintegrating phase. […] In one embodiment, said gel comprises 0.1 M-1 M salt, such as 0.1 M-0.5 M salt, such as 0.1 M-0.3 M salt. […] The amounts of vortioxetine pyroglutamate are indicated as free base. It is the experience of the inventors that the volume of the aqueous phase and the final gel are roughly similar when the gel comprises a therapeutically relevant dose in a therapeutically relevant volume.
The gelling experiments were carried out in a 4 ml cylindrical vial with an inner diameter of approximately 1 cm.

[3] = Dynamic Vapour Sorption (hygroscopicity); type: physicochemical; conditions: for Water absorbed (DVS, change in mass): humidity up to / at 95% relative humidity, 25° C.
Experimental: Dynamic Vapour Sorption spectra were obtained on equipment from SMS Systems (DVS Advantage). The change in mass (relative to the dry state) of a sample (10-20 mg) was determined as a function of the relative humidity (P/P0) at 25° C.

[4] = cited from earlier work
[5] = Example 2: 10.2 mg, potassium bromide in water 0.23 M, 1.0 mL, 4 mL vial
[6] = known salts, values from the cited reference
[7] = Example 8: 7.6 mg, sodium bromide in water 0.18 M, 1.0 mL, 4 mL vial
[8] = Example 1: 5.5 mg, potassium bromide in water 0.17 M, 1.0 mL, 4 mL vial
[9] = Example 3: 6.2 mg, sodium bromide total 0.26 M, 1.0 mL, 4 mL vial
[10] = Example 4: 10.7 mg, sodium bromide total 0.20 M, 1.0 mL, 4 mL vial
[11] = Example 5: 0.80 g, sodium chloride in water 0.20 M, 100 mL, 250 mL round-bottomed flask
[12] = Example 6: 8.0 mg, sodium chloride total 0.26 M, 1.0 mL, 4 mL vial
[13] = Example 7: 11.2 mg, sodium chloride total […], 1.0 mL, 4 mL vial
[14] = Example 9: 14 mg, sodium chloride 26 mg and water 2.0 mL, 4 mL vial

Question: For Cc1ccc(Sc2ccccc2N2CCNCC2)c(C)c1.O=C1CCC(C(=O)O)N1 [vortioxetine pyroglutamate], which “Dissolution rate compared to the HBr salt” value ([1]; Example 18) is on record?
Answer: The value was “markedly higher dissolution rate”.

Question: What does the source list for Cc1ccc(Sc2ccccc2N2CCNCC2)c(C)c1.O=C1CCC(C(=O)O)N1 [vortioxetine (DL)-pyroglutamate α-form]?
Answer: Standing time until a clear gel was formed [2, 5]: less than 1 minute; Time vial left upside down with gel properties maintained [2, 5]: more than 1 hour; Hygroscopicity (DVS) ([3]; DVS spectrum up to 95% relative humidity): not hygroscopic; Water absorbed (DVS, change in mass) ([3]; listed as vortioxetine (DL)pyroglutamate α-form): Less than 0.3%

Question: With Cc1ccc(Sc2ccccc2N2CCNCC2)c(C)c1.Cl [HCl] as the compound, how does the “Solubility” value [4, 6] read?
Answer: The value was 3 mg/mL.

Question: Which “Solubility” value [4, 6] does the source give for Br.Cc1ccc(Sc2ccccc2N2CCNCC2)c(C)c1 [HBr β-form, reference compound] here?
Answer: The value was 1.2 mg/mL.

Question: What about the “IDR (mean of 2 determinations (mg/cm2/min))” value [1] of the same compound?
Answer: Its value is 0.10 mg/cm2/min.

Question: With Phosphate as the compound, how does the “Solubility” value [4, 6] read?
Answer: The value was 1 mg/mL.

Question: For Cc1ccc(Sc2ccccc2N2CCNCC2)c(C)c1.O=C1CCC(C(=O)O)N1 [vortioxetine (L)-pyroglutamate, Vortioxetine (L)-pyroglutamate], which “Standing time until a clear gel was formed” value [2, 7] is on record?
Answer: The value was “less than 1 minute”.

Question: What about the “Time vial left upside down with gel properties maintained” value (“Time vial left upside down” for short) [2, 7] of the same compound?
Answer: The value was “more than 30 minutes”.

Question: What about the “Water absorbed (DVS, change in mass)” value [3] of the same compound?
Answer: The value was 2.7%.

Question: And the “IDR (mean of 2 determinations (mg/cm2/min))” value [1]?
Answer: The value was 14.9 mg/cm2/min.

Question: With Cc1ccc(Sc2ccccc2N2CCNCC2)c(C)c1.O.O=C1CCC(C(=O)O)N1 [vortioxetine (DL)-pyroglutamate MH] as the compound, how does the “Standing time until a clear gel was formed” value [2, 8] read?
Answer: The value was “less than 1 minute”.

Question: And the “Time vial left upside down” value [2, 8]?
Answer: Its value is “more than 1 hour”.

Question: And the “Standing time until a clear gel was formed” value [2, 9]?
Answer: The value was “less than 1 minute”.

Question: What about the “Time vial left upside down” value [2, 9] of the same compound?
Answer: The value was “more than 30 minutes”.

Question: What about the “Standing time until a clear gel was formed” value [2, 10] of the same compound?
Answer: Its value is “less than 1 minute”.

Question: And the “Time vial left upside down” value [2, 10]?
Answer: The value was “more than 1 hour”.

Question: What about the “Standing time until a clear gel was formed” value [2, 11] of the same compound?
Answer: The value was 2 min.

Question: And the “Time flask left upside down with gel properties maintained” value [2, 11]?
Answer: The value was “more than 30 minutes”.

Question: And the “Standing time until a clear gel was formed” value [2, 12]?
Answer: Its value is 6 min.

Question: And the “Time vial left upside down” value [2, 12]?
Answer: Its value is “more than 1 hour”.

Question: And the “Standing time until a clear gel was formed” value [2, 13]?
Answer: Its value is 5 min.

Question: And the “Time vial left upside down” value [2, 13]?
Answer: Its value is “more than 30 minutes”.

Question: And the “Standing time until gel was formed” value [2, 14]?
Answer: Its value is “less than 1 minute”.

Question: And the “Time vial left upside down” value [2, 14]?
Answer: The value was “more than 10 minutes”.

Question: And the “Hygroscopicity (DVS)” value ([3]; at 95% relative humidity)?
Answer: The value was “hygroscopic”.

Question: What about the “Water absorbed (DVS, change in mass)” value [3] of the same compound?
Answer: The value was “more than 10%”.

Question: And the “Hygroscopicity (DVS)” value ([3]; up to 80% relative humidity at 25° C.)?
Answer: The value was “not hygroscopic”.

Question: For O=C1CCC(C(=O)O)N1 (racemic) [DL-Pyroglutamate], which “IDR (mean of 2 determinations (mg/cm2/min))” value [1] is on record?
Answer: The value was 14.7 mg/cm2/min.

Question: Which “Solubility” value [4, 6] does the source give for Maleate here?
Answer: Its value is 1 mg/mL.

Question: For CC(O)C(=O)O.Cc1ccc(Sc2ccccc2N2CCNCC2)c(C)c1 [DL-lactate β-form], which “Solubility” value [4, 6] is on record?
Answer: The value was 8 mg/mL.

Question: Which “Solubility” value [4, 6] does the source give for CC(O)C(=O)O.Cc1ccc(Sc2ccccc2N2CCNCC2)c(C)c1.O [L-lactate Monohydrate2] here?
Answer: The value was 26 mg/mL.

Question: For Br.Cc1ccc(Sc2ccccc2N2CCNCC2)c(C)c1, which “Solubility” value ([4]; (Calculated), WO 2014/044721) is on record?
Answer: Its value is 3 to 3.8 mg/mL.
